Target: T1, BTK C481S (Homo sapiens, UniProt Q06187, C481S)
T1 construct: Human wild type BTK full length was obtained from the ORFeome; expressed in transfected cells; host or cells: U2OS (ATCC HTB-96), pCDNA3.1, CMV promoter
Test: Degradation of overexpressed BTK C481S in transfected U2OS cells
Format: cell-based
Conditions: overexpressed WT vs C481S BTK, 100 nM, 24 h
Method: Figure 5 Degradation of overexpressed BTK and BTK C481S in U2OS cells. (A) Transfected U2OS cells were treated with 100 nM PROTAC for 24 h, followed by measuring BTK levels via Western blot. (B) Quantification of normalized BTK levels in (A). TEXT PRINTED IN THE PICTURE: (A) IR-1: BTK % control: 43 (Transfection: BTK-WT; PROTAC 24h [0.1 μM]); BTK % control: 67 (Transfection: BTK-C481S; PROTAC 24h [0.1 μM]) | (A) RC-2: BTK % control: 58 (Transfection: BTK-WT; PROTAC 24h [0.1 μM]); BTK % control: 73 (Transfection: BTK-C481S; PROTAC 24h [0.1 μM]) | (A) IR-2: BTK % control: 41 (Transfection: BTK-WT; PROTAC 24h [0.1 μM]); BTK % control: 62 (Transfection: BTK-C481S; PROTAC 24h [0.1 μM]) | (A) NC-1: BTK % control: 27 (Transfection: BTK-WT; PROTAC 24h [0.1 μM]); BTK % control: 49 (Transfection: BTK-C481S; PROTAC 24h [0.1 μM]) | (A) RC-3: BTK % control: 27 (Transfection: BTK-WT; PROTAC 24h [0.1 μM]); BTK % control: 104 (Transfection: BTK-C481S; PROTAC 24h [0.1 μM]) DOUBTS OF THE COPYIST ABOUT THIS PICTURE: The % control numbers are printed under a Western blot. They are given here as printed results for each compound. The vehicle and untransfected lanes (DMSO 100 and 100, Un 1 and 0) were left out as controls. / Panel B prints no numbers for its bars, so nothing was taken from it.
Ramos (ATCC, CRL-1596), Mino (ATCC, CRL-3000), or K562 (NCI-60) cell lines were counted and diluted to 10^6 cell/mL, using 1 mL per well in a 24-well plate, and U2OS (ATCC HTB-96) cells overexpressing human BTK WT or C481S mutant were grown using 2 mL in a six-well plate (see Supporting Information). Cells were incubated with 1% DMSO or compound in indicated concentrations for 24 h unless indicated differently, or cells were left untreated. Lysates were prepared as previously described,[29] and samples were measured for total protein quantification by bicinchoninic acid (BCA) assay (#23225 ThermoFisher Scientific) supplemented with 4× loading buffer including 20 mM DTT, heated to 70 °C for 10 min, loaded into 4% SDS-PAGE gel, run for 45 min at 140 mV, then transferred into a nitrocellulose membrane (Biorad) using a Trans-Blot Turbo transfer system (Biorad). The membrane was stained with Ponceau (Sigma) to validate transfer for 10 min in gentle agitation then destained for 1 h with MQ water. The membrane was blocked with Licor blocking buffer (LIC927-70001) for 1 h, washed three times for 5 min with TBS-T, incubated with primary antibody BTK (D3H5) rabbit mAb (CST; 8547 S) overnight (16 h) at 4 °C, washed three times for 5 min with TBS-T, and incubated with primary antibody against β-actin (CST; 3700) for 1 h at 25 °C. Membrane was washed three times for 5 min with TBS-T, incubated with fluorescent secondary antibodies anti-mouse IgG Alexa Fluor 647 (CST: 4410S) and anti-rabbit-IgG IRDye 800(LICOR: 926-32211) for 1 h, then washed three times for 5 min with TBS-T, dried, and immediately imaged and analyzed using Licor Odyssey CLx. Prism (GraphPad) software was used to calculate degradation levels. We used second-order polynomial fits to estimate DC50 and Dmax values.
Cloning and Over Expression of BTK
Human wild type BTK full length was obtained from the ORFeome (ref: http://www.orfeomecollaboration.org/), from which the full human BTK gene (clone HsCD00433457) was inserted into the mammalian expression vector pCDNA3.1. In parallel, a mutant BTK C481S was constructed by assemble 2 PCR products harboring the desired mutation and cloned into pCDNA3.1. […]

T1 sequence (Q06187 whole entry C481S): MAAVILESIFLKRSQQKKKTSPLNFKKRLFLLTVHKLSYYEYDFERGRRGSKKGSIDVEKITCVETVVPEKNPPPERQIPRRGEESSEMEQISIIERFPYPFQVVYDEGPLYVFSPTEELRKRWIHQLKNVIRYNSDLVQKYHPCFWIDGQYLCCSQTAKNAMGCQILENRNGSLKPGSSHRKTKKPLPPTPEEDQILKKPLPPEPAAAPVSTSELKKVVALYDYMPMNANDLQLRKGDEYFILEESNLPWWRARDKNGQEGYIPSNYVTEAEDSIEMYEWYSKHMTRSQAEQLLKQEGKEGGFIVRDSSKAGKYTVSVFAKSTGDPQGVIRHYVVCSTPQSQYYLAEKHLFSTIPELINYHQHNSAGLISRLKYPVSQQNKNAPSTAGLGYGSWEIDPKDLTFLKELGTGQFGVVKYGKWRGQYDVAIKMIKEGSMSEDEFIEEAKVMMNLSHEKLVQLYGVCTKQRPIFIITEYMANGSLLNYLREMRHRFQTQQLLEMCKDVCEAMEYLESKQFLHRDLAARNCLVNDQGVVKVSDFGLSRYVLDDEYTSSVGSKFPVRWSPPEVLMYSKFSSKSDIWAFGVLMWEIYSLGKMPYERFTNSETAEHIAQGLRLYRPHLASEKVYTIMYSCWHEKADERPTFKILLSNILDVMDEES

| SMILES | sensitivity of degradation to the C481S mutation |
| --- | --- |
| Nc1ncnc2c1c(-c1ccc(Oc3ccccc3)cc1)nn2C1CCCN(C(=O)CCCCCCOCCOCCOCCOCCOc2cccc3c2C(=O)N(C2CCC(=O)NC2=O)C3=O)C1 (centres unmarked) [NC-1] | only mildly affected by the mutation |
| N#CC(=CCCCCOCCOCCOCCOCCOc1cccc2c1C(=O)N(C1CCC(=O)NC1=O)C2=O)C(=O)N1CCCC(n2nc(-c3ccc(Oc4ccccc4)cc3)c3c(N)ncnc32)C1 (centres unmarked) [RC-2] | low sensitivity to the mutation |
| CC(C)(C=C(C#N)C(=O)N1CCCC(n2nc(-c3ccc(Oc4ccccc4)cc3)c3c(N)ncnc32)C1)CCCOCCOCCOCCOCCOc1cccc2c1C(=O)N(C1CCC(=O)NC1=O)C2=O (centres unmarked) [RC-3] | severely impaired by the mutation |

Next, values leading:

| sensitivity of degradation to the C481S mutation | SMILES |
| --- | --- |
| low sensitivity to the mutation | Nc1ncnc2c1c(-c1ccc(Oc3ccccc3)cc1)nn2C1CCCN(C(=O)C=CCOCCOCCOCCOCCOCCOc2cccc3c2C(=O)N(C2CCC(=O)NC2=O)C3=O)C1 (centres unmarked) [IR-1] |
| low sensitivity to the mutation | Nc1ncnc2c1c(-c1ccc(Oc3ccccc3)cc1)nn2C1CCCN(C(=O)C=CCCCCOCCOCCOCCOCCOc2cccc3c2C(=O)N(C2CCC(=O)NC2=O)C3=O)C1 (centres unmarked) [IR-2] |

Source: publication PMC7349657, “Efficient Targeted Degradation via Reversible and Irreversible Covalent PROTACs” (Journal of the American Chemical Society, 2020)
